From article PMC11933327, “Asymmetric activation of dimeric ATM/Tel1 kinase” (Cell Discovery, 2025)

How the values were obtained:
[1] = test system: human ATM; details: ref [5] Howes, A. C., Perisic, O. & Williams, R. L. Sci. Adv. 9, eadi8291 (2023); cited from earlier work
Text: Based on a radiolabeled ATP-based kinase assay, which is the “gold standard” for the quantification of protein kinase activity, we managed to achieve a 30-fold increase in ATM/Tel1 activity (Fig. 1a; Supplementary Fig. S3). This level of activati ...

[2] = test system: ATM/Tel1; assay: Endogenous activation of ATM/Tel1 in cultured yeast cells; assay type: cell-based, Schizosaccharomyces pombe; details: 0.05% MMS added at OD600 ≈ 4, cells collected 60 min later
Procedure: (§1) Purification of Yeast ATM/Tel1
(§2) S. pombe stain CC5060 (h–leu1-32 ura4- D18 kanMX6:nmt1:TAP-tel1)[1] was grown in YPD medium to the stationary phase. 0.05% MMS(MACKLIN)was added at OD600 ≈ 4 and c ells were collected 60 min later. About 100 g cells were harvested, washed, and resuspended in extraction buffer (50 mM HEPES [pH 7.6], 300 mM ammonium sulfate, 0.5 mM EDTA, 5 mM β-ME, 10% (v/v) glycerol, 0.01% (v/v) NP-40 and protease inhibitors), and a whole-cell extraction was prepared as previously described. This whole -cell extract was selectively precipitated in 30-55% ammonium sulfate and resuspended using binding buffer (50 mM HEPES [pH 7.6], 1 mM EDTA, 10 mM ZnCl2, 5 mM β- ME, and protease inhibitors). […] The ATM/Tel1 elution was flash- frozen in liquid nitrogen, and analyzed by SDS-PAGE and EM examination.
(§3) Expression and Purification of full-length CHK2, MRN (Mre11, Rad50-core, Nbs1) The codon-optimized gene fragments for human full- length CHK2, yeast Mre11, Rad50-core (lacking the coiled-coil motif) were cloned into the pET22b vector with a C-terminal 6× His tag and Nbs1 were cloned into the pET22b vector with a C-terminal 6× His tag and a GST tag, and transformed into E. coli BL21(DE3). […] The eluted CHK2 and MRN proteins were flash-frozen in liquid nitrogen and analyzed by SDS-PAGE and EM. […]

[3] = molecular target: T1, active ATM/Tel1 (Schizosaccharomyces pombe, UniProt O74630); assay: Surface plasmon resonance, CHK2 immobilized, active ATM/Tel1; assay type: binding; details: 20 °C, experiment independently repeated three times
T1 construct: TAP (N, cleaved yes); made in house; host or cells: Schizosaccharomyces pombe strain CC5060 (TAP-tel1 under the nmt1 promoter), treated with 0.05% MMS
T1 sequence (O74630 whole entry): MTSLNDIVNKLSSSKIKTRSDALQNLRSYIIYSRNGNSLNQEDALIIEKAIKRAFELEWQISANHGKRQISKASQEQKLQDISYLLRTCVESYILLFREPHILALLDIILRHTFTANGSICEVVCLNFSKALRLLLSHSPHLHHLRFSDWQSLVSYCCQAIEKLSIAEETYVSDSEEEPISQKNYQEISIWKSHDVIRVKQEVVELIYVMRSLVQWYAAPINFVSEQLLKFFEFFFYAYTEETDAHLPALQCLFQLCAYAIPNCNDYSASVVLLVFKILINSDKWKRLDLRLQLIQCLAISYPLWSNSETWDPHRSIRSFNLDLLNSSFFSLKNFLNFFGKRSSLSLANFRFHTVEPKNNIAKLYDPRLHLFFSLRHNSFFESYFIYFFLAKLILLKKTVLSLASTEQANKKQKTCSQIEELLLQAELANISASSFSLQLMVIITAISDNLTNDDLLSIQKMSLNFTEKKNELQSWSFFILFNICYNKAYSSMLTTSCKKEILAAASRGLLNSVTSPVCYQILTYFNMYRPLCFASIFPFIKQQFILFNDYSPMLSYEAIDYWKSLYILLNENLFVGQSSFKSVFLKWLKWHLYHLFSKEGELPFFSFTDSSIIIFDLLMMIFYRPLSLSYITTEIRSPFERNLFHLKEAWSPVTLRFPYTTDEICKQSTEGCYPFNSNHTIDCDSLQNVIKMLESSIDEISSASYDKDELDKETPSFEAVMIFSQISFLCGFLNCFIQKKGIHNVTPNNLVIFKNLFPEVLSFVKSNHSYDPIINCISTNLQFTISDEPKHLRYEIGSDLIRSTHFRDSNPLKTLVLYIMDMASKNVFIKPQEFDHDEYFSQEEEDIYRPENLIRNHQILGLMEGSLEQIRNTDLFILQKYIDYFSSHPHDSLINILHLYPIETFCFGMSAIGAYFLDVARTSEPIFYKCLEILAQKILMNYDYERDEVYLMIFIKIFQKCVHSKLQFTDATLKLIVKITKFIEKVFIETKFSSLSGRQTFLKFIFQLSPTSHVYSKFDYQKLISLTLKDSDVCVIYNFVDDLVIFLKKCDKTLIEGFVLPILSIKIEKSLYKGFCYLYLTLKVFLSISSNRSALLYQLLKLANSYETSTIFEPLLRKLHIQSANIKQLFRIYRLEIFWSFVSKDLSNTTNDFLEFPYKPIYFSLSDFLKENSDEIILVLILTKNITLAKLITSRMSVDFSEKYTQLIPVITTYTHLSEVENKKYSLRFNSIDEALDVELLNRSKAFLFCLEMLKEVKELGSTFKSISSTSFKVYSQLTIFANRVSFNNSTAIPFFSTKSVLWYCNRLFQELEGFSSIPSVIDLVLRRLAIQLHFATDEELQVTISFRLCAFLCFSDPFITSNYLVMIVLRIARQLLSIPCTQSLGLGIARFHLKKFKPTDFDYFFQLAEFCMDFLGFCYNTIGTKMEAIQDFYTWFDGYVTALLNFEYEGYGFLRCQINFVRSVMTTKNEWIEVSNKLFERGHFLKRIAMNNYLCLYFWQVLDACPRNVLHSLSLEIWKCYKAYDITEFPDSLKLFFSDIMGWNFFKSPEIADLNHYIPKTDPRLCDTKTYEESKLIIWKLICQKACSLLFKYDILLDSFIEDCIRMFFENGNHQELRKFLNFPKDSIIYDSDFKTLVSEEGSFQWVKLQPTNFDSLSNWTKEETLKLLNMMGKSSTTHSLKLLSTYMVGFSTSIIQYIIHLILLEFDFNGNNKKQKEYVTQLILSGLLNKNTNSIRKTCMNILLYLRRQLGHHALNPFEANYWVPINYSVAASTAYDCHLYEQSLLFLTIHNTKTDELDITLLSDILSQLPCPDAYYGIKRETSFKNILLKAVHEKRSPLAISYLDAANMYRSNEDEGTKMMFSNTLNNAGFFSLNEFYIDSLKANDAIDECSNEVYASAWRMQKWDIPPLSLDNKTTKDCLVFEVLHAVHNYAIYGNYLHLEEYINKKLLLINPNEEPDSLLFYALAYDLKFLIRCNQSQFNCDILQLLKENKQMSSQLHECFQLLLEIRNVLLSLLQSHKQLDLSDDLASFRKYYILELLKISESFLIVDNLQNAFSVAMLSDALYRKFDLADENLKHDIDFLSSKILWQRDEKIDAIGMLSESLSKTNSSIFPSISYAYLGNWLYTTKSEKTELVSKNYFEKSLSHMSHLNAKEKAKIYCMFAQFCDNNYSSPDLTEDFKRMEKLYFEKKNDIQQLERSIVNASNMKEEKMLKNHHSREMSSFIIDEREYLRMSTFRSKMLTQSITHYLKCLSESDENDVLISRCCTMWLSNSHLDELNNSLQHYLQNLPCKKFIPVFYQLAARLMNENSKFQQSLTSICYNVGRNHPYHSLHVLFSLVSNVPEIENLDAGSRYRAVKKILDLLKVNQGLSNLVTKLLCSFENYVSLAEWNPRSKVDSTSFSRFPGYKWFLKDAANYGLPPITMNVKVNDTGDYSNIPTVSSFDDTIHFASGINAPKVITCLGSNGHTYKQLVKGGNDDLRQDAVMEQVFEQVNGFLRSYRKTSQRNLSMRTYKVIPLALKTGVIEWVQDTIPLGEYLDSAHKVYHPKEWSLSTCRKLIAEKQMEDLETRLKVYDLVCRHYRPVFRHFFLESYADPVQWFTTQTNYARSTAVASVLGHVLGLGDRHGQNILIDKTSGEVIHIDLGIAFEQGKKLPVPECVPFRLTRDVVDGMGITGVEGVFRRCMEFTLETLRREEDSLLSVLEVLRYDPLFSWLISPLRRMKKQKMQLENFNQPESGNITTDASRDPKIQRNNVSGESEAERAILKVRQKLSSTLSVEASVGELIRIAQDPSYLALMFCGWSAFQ
Procedure: as §1
as §2, with “described.” for “described. This whole -cell extract was selectively precipitated in 30-55% ammonium sulfate and resuspended using binding buffer (50 mM HEPES [pH 7.6], 1 mM EDTA, 10 mM ZnCl2, 5 mM β- ME, and protease inhibitors).”
as §3
(§4) to SDS- PAGE and analyzed by Western blot (WB) using pan- acetylated -Lysine (Rabbit monoclonal, Cat# 9441S, Cell Signaling Technology). and phospho-ATM/ATR substrate (pSQ/pTQ motif, Rabbit monoclonal, Cat# 6966, Cell Signaling Technology) antibodies. […]

[4] = test system: active ATM/Tel1 dimer; assay: Cryo-EM structure of active ATM/Tel1 with substrate peptide; assay type: binding, Schizosaccharomyces pombe; details: cryo-EM Structure 2, 3.6 Å; active ATM/Tel1 : 329 bp DNA : CHK2 peptide 1:20:200 with AMP-PNP, on ice 1 h
Procedure: The affinity chromatography sample of ATM/Tel1 was diluted to final concentrations of 0.05 mg/ml (50 mM HEPES [pH 7.6], 0.01% (v/v) NP- 40, 1 mM EDTA, 10 mM ZnCl 2, 5 mM β- ME, and protease inhibitors). Negative staining was used to evaluate the protein quality. In brief, 3 µl of freshly purified ATM/Tel1 was applied onto copper grids supported by a thin layer of glow - discharged carbon film (Zhongjingkeyi Technology Co., Ltd). After adsorption for 30 s, uranyl acetate (2% w/v) was used for negative staining at room temperature. The negatively stained grids were examined using FEI Talos L120C operated at 120 KeV. […]
The grids were imaged in a Titan Krios cryo-electron microscope (Thermo Fisher Scientific) operated at 300 keV at a magnification of 81,000 × (corresponding to a calibrated sampling of 1.07 Å per pixel). Movies were recorded by EPU with a Gatan K3 Summit direct electron detector, where each movie was composed of 32 individual frames with an exposure time of 3.8 s and a dose rate of 50 electrons per second per Å2. […]
Beam-induced sample motions were corrected using MotionCorr2[3] software, and contrast transfer function (CTF) parameters were estimated using CTFFIND4[4] software. […] All reported resolutions were calculated from gold standard refinement procedures with the FSC = 0.143 criterion implemented in cryoSPARC[5]. […]

[5] = molecular target: T2, basal ATM/Tel1 (Schizosaccharomyces pombe, UniProt O74630); assay: Surface plasmon resonance, CHK2 immobilized, basal ATM/Tel1; assay type: binding; details: 20 °C, experiment independently repeated three times
T2 construct: we endogenously purified basal; TAP (N, cleaved yes); made in house; host or cells: Schizosaccharomyces pombe strain CC5060 (TAP-tel1 under the nmt1 promoter)
T2 sequence (O74630 whole entry): as above
Procedure: as §1
as §2, with “described.” for “described. This whole -cell extract was selectively precipitated in 30-55% ammonium sulfate and resuspended using binding buffer (50 mM HEPES [pH 7.6], 1 mM EDTA, 10 mM ZnCl2, 5 mM β- ME, and protease inhibitors).”
as §3, §4

Molecule: OO [H2O2]
- level of activation of human ATM in vitro compared with the 30-fold activation of ATM/Tel1 [1]: comparable

Molecule: COS(C)(=O)=O [methylmethane sulfonate]
- activation of cellular ATM/Tel1 (in words) [2]: endogenously activated the cellular ATM/Tel1

Molecule: LETVSTQELYSI [CHK2 peptide, 12-residue human CHK2 substrate peptide 63-74, custom-synthesized by Sangon, with an N-terminal NH2 and C-terminal COOH]
- affinity for active ATM/Tel1 relative to full-length CHK2 ([3]; SPR (Supplementary Fig. S7)): comparable to that of the full-length CHK2
- binding affinity for active ATM/Tel1 (in words) ([3]; SPR (Supplementary Fig. S7a)): increased affinity in the active state
- monomers of the active dimer that bind the substrate peptide [4]: only Mono1, but not Mono2, can bind to the CHK2 peptide
- reduction of affinity for basal ATM/Tel1 compared to the active state ([5]; SPR (Supplementary Fig. S7)): over 120 fold
- binding affinity for basal ATM/Tel1 (in words) ([5]; SPR (Supplementary Fig. S7b)): significantly lower affinity
